From patent EP0254663B1, “2-(2-Phosphonoxyphenyl-Carbonyloxy)benzoic acid, salts thereof, a process for the preparation thereof” (SUEROS, ANTIBIOTICOS Y LABORATORIO DE VACUNOTERAPIA, …, priority 1986, dated 1988)

Tests used:
[1] = tested on: pain induced in mouse by i.p. injection of acetic acid; assay: pain induced in mouse by i.p. injection of acetic acid; assay type: in vivo; details: i.p. acetic acid 30 minutes after oral administration
Method: The inhibitory dose30 levels (ID-30) for pain induced in mouse by i.p. injection of acetic acid 30 minutes after oral administration were: 46.3, 98.15, 40 and 129.6 for PSS, PS (phosphosal), ASA and SS, respectively.

acute oral toxicity = details: in vivo, read-out: Acute toxicity (LDso)
beer yeast induced fever = beer yeast induced fever in the rat; assay type: in vivo
[2] = tested on: carrageenin induced rat paw oedema; assay: carrageenin induced rat paw oedema; assay type: in vivo; details: 200 mg/kg
Method: PSS has a 49 % anti-inflammatory activity at 200 mg/kg on carrageenin induced rat paw oedema.

adjuvant arthritis = adjuvant arthritis inhibition; assay type: in vivo; details: 100-200 mg/kg/day, for 14 days
Method: At doses ranging from 100-200 mg/kg/day, for 14 days, PSS inhibits adjuvant arthritis by 40 - 50 %. At equal dose levels, inhibition by ASA is 0 - 39 %.

[3] = tested on: motor activity inhibition produced by inflammatory pain; assay: correction of motor activity inhibition produced by inflammatory pain; assay type: in vivo; details: 200 mg/kg
Method: PSS and ASA afford a 90 % correction of the motor activity inhibition produced by inflammatory pain at 200 mg/kg.

[4] = salicylic acid levels after continued administration for 14 days; assay type: in vivo; details: continued administration at equal dose levels for 14 days
[5] = gastrointestinal hemorrhages, blood in faeces (radioisotope method); assay type: in vivo; details: 400 mg/kg, faeces excreted during the following 4 days
[6] = tested on: serum reducing activity (SH group levels); assay: correction of depressed serum reducing activity (SH group levels) in adjuvant arthritis; assay type: in vivo; details: 200 mg/kg/day
Method: In adjuvant arthritis, there is observed a depression of the serum reducing activity (SH group levels). PSS affords a 100 % correction at 200 mg/kg/day, while at equal dose levels ASA only affords a 60 % correction.

ulcerogenic activity = details: in vivo
Text: The ulcerogenic activity of PSS (ulcerogenic index - 3.16) is lower than that of ASA (UI = 10.54) or indo- methacin (Ul - 25.28).

[7] = tested on: death by respiratory distress caused by i.v. injection of arachidonic acid; assay: protection from death by respiratory distress caused by i.v. arachidonic acid; assay type: in vivo
Method: ASA provides 72 % protection at 50 mg/kg.

Row | SMILES | inhibitory dose30 levels (ID-30) [1] | LD50 (acute oral toxicity) [mg/kg] | antipyretic activity (beer yeast induced fever) | anti-inflammatory activity [2] [%] | inhibition of adjuvant arthritis (adjuvant arthritis) | correction of the motor activity inhibition produced by inflammatory pain [3] [%] | salicylic acid levels [4] | Gastrointestinal hemorrhages, measured as µl blood in faeces [5] | correction of depression of the serum reducing activity (SH group levels) [6] [%] | ulcerogenic index (ulcerogenic activity) | protection from death by respiratory distress ([7]; 100 mg/kg) | protection from death by respiratory distress ([7]; 50 mg/kg) [%]
1 | O=C(O)c1ccccc1OC(=O)c1ccccc1OP(=O)(O)O [PSS, 2-(2-phosphonoxyphenylcarbonyloxy) benzoic acid] | 46.3 | 1590 | superior to ASA and inferior to paracetamol | 49 | 40 - 50% | 90 | much higher salicylic acid levels for PSS than for ASA | significantly lower than those caused by ASA | 100 | 3.16 | does not protect | 
2 | COc1ccc2c(c1)c(CC(=O)O)c(C)n2C(=O)c1ccc(Cl)cc1 [indo- methacin] |  |  |  |  |  |  |  |  |  | 25.28 |  | 
3 | CC(=O)Oc1ccccc1C(=O)O [ASA, acetyl salycilic acid] | 40 | 1100 |  | 61 | 0 - 39% | 90 |  |  | 60 | 10.54 |  | 72
4 | O=C(Oc1ccccc1C(=O)O)c1ccccc1O [SS, 2-(2-hydroxyphenylcarbonyloxy) benzoic acid] | 129.6 |  |  | 24 |  | 32.6 |  |  |  |  |  | 
5 | O=C(O)c1ccccc1OP(=O)(O)O [PS, salicylic acid phosphonate] | 98.15 |  |  |  |  | 65 |  |  |  |  |  | 
